# In patent US4738954A, “Novel N^6 -substituted-5'-oxidized adenosine analogs” (Warner-Lambert Company, priority 1985, dated 1988):
# System: platelets (ADP-induced aggregation)
# Experiment: Antithrombocyte aggregation test in vitro (ATA-8), ADP-induced, platelet rich plasma
# Assay type: cell-based, human (Community Research Clinic volunteers)
# Conditions: Homo sapiens
# Procedure: ANTITHROMBOCYTE AGGREGATION TEST-IN VITRO (ATA-8)
# Source and Preparation of Platelet Suspensions
# Blood is collected from Community Research Clinic volunteers who have not ingested aspirin or other non-steroidol antiinflammatory drugs within the preceeding two weeks and have not eaten within the nine hours before blood draw. Blood is taken in 4.5 ml portions in Vacutainer No. 6462S silicone-coated tubes or equivalent containing 0.5 ml of 3.8% trisodium citrate. Usually six or eight portions of 4.5 ml are drawn from each volunteer. The blood collected from three or four volunteers is pooled prior to centrifugation. The pooled blood is put in 50 ml polyethylene tubes and centrifuged at 80×g (ca 600 rpm) for 20 min in an International Model K centrifuge at room temperature. […] The platelet count of the PRP is determined with a Coulter Thromobocounter. […]
# Platelet-rich plasma adjusted to 250,000 platelets per microliter is distributed in 0.36 ml aliquots into silicone-coated cuvettes of 0.312 inch diameter. […] Extent of aggregation, using ADP stimulus, or rate of aggregation, using collagen stimulus, is determined using the Payton Scientific Dual Channel Aggregation Module, Model 300B. Appropriate concentrations of ADP or collagen are determined by an initial brief titration. […]
row,Compound,IC50 [nM]
1,"CCNC(=O)[C@H]1O[C@@H](n2cnc3c(N[C@H](C)Cc4ccccc4)ncnc32)[C@H](O)[C@@H]1O [Example 1, (R)-N-6-[(2-phenyl-1-methyl)ethyl]-adenosine-5'-ethylcarboxamide]",600

# Target: T1, adenosine A1 receptor (Rattus norvegicus, UniProt P25099)
# T1 construct: Whole brain minus cerebellum and brainstem from male Long Evans rats; from tissue; host or cells: rat whole brain minus cerebellum and brainstem, membranes
# T1 sequence (P25099 1-326): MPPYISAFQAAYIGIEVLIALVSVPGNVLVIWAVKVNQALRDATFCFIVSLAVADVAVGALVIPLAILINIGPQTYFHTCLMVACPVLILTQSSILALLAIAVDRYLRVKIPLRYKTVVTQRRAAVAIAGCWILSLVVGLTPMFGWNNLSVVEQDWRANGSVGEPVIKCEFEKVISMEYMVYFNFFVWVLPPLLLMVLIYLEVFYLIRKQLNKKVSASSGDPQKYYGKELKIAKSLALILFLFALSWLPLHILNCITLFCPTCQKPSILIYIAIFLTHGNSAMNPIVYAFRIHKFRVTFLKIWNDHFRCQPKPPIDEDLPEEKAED
# Experiment: Adenosine Receptor Binding--A1 Receptor Affinity (RBA1), [3H]-CHA displacement
# Conditions: 1.0 nM [3H]-CHA, rat brain, 25° C, 1 h; read-out: RBA-1 (IC50, A1 receptor affinity)
# Procedure: Adenosine Receptor Binding--A1 Receptor Affinity (RBA1)
# Whole brain minus cerebellum and brainstem from male Long Evans rats (105-200 g) was homogenized in 30 volumes of ice-cold 0.05M Tris-HCl buffer pH 7.7 using a Brinkman Polytron PT-10, (setting number 6 for 20 seconds) and centrifuged for ten minutes at 20,000×g (Sorvall RC-2), 4° C. The supernatant was discarded, and the pellet was resuspended and centrifuged as before. The pellet was resuspended in 20 ml Tris-HCl buffer containing two International Units/ml of adenosine deaminase (Sigma type III from calf intestinal mucosa), incubated at 37° C. for 30 minutes, then subsequently at 0° C. for ten minutes. The homogenate was again centrifuged, and the final pellet was resuspended in ice-cold 0.05M Tris-HCl buffer pH 7.7 to a concentration of 20 mg/ml original wet tissue weight and used immediately.
# Tissue homogenate (10 mg/ml) was incubated in 0.05M Tris-HCl buffer pH 7.7 containing 1.0 nM ((^3 H))-N^6 -cyclohexyladenosine ([^3 H]-CHA) with or without test agents in triplicate for one hour at 25° C. Incubation volume was 2 ml. Unbound [^3 H]-CHA was separated by rapid filtration under reduced pressure through Whatman glass fiber (GF/B) filters. The filters were rinsed three times with 5 ml of ice cold 0.05M Tris-HCl buffer pH 7.7. The radio-labeled ligand retained on the filter was measured by liquid scintillation spectrophotometry after shaking the filters for one hour or longer on a mechanical shaker in 10 ml of Beckman Ready-Solv HP scintillation cocktail.
# Nonspecific binding was defined as the binding which occured in the presence of 1 mM theophylline. The concentration of test agent which inhibited 50% of the specific binding (IC50) was determined by nonlinear computer curve fit. The Scatchard plot was calculated by linear regression of the line obtained by plotting the amount of radioligand bound (pmoles/gram of tissue) versus [formula] Since the amount of radioligand bound was a small fraction of the total amount added, free radioligand was defined as the concentration of (nM) of radioligand added to the incubation mixture. The Hill coefficient was calculated by linear regression of the line obtained by plotting the log of the bound radioligand vs the log of the [formula] The maximal number of binding sites (Bmax) was calculated from the Scatchard plot.
row,IC50 [nM],Compound
1,49,"CCNC(=O)[C@H]1O[C@@H](n2cnc3c(NCc4cccc5ccccc45)ncnc32)[C@H](O)[C@@H]1O [Example 6, N-6-Naphthylmethyladenosine-5'-ethylcarboxamide]"
2,4,"CCOC(=O)[C@H]1O[C@@H](n2cnc3c(NC4CC5CCC4C5)ncnc32)[C@H](O)[C@@H]1O (relative stereo) [Example 8, N-6-Norbornyl-adenosine-5'ethylcarboxylate]"
3,291,"CCOC(=O)[C@H]1O[C@@H](n2cnc3c(NCC(c4ccccc4)c4ccccc4)ncnc32)[C@H](O)[C@@H]1O [Example 5, N6-(2,2-diphenylethyl)-5-adenosine-5'-ethylcarboxylate]"

# Continued, compound first:
row,Compound,IC50 [nM]
1,"CCNC(=O)[C@H]1O[C@@H](n2cnc3c(NCC(c4ccccc4)c4ccccc4)ncnc32)[C@H](O)[C@@H]1O [Example 3, N^6-(2,2-diphenylethyl)-adenosine-5'-ethylcarboxamide]",16
2,"CCNC(=O)[C@H]1O[C@@H](n2cnc3c(N[C@H](C)Cc4ccccc4)ncnc32)[C@H](O)[C@@H]1O [Example 1, (R)-N-6-[(2-phenyl-1-methyl)ethyl]-adenosine-5'-ethylcarboxamide]",2
